Measurements from patent publication US20250326793A1, “Novel Peptide and Use Thereof” (Zincure Corp., priority 2022, published 2025).
Non-standard residues stand in square brackets, D forms with d. No end group written: not given here.

Key:
[1] = system: SOD1 protein aggregates (EGFP-SOD1 G93A); assay: Western blot of SOD1 protein aggregates in transfected HEK293T cells treated with bafilomycin; type: cell-based; settings: 100 nM bafilomycin alone vs control
Procedure: FIG. 2A is the results of a western blot analysis of SOD1 protein expression levels of protein samples obtained 18 h after treatment of HEK293T cells transfected to express SOD1 with either 100 nM bafilomycin alone or in combination with 30 μM of some peptides according to one embodiment of the present invention, to investigate the degradation of SOD1 protein aggregates by treatment with some peptides (ZC303, ZC304, ZC309, ZC311) according to one embodiment of the present invention. FIG. 2B is a graph showing the results of quantification of the relative expression. In FIG. 2B, * indicates a significant difference from the treatment with bafilomycin alone (* p<0.05).
(§1) The present inventors conducted an Western blot analysis to investigate whether some of the peptides (ZC303, ZC304, ZC309, ZC311) comprising the amino acid sequences designated as SEQ ID NO: 1 to 15 could resolve SOD1 aggregates that formed after transient transfection of SOD1 protein into HEK293T cell lines. Specifically, the present inventors transiently transfected EGFP-SOD1 G93A DNA into the HEK293T cell line using Lipofectamine 2000. […] The obtained cell lysate was subjected to protein quantification using BCA protein assay kit (Pierce Biotechnology, USA). […]

[2] = system: mutant huntingtin protein aggregates (GFP-mHttQ74); assay: Western blot of mutant huntingtin protein aggregates in transfected HEK293T cells treated with bafilomycin; type: cell-based; settings: 100 nM bafilomycin alone vs control
Procedure: FIG. 5 is the results of a Western blot analysis of mutant huntingtin protein expression levels of protein samples obtained 18 h after treatment of HEK293T cells transfected to express mutant huntingtin protein with either 100 nM bafilomycin alone or in combination with 30 μM of some peptides according to one embodiment of the present invention, to investigate the degradation of mutant huntingtin protein aggregates by treatment with some peptides (ZC303, ZC304, ZC309, ZC311) according to one embodiment of the present invention.
as §1, with “2000. After transfection, the cell lines were incubated in a cell incubator at 37° C., 5% CO2 for 30 h and the culture medium was replaced with Minimum Essential Medium (MEM, Gibco, USA). After a 30 min pre-treatment with 100 nM bafilomycin, 30 μM of peptide was added and incubated for 18 h of post-treatment.” for “2000.”

[3] = system: H4 cell lines expressing GFP-tagged LC3 (GL-H4); assay: Autophagic flow blocked by Bafilomycin A-1: LC3-GFP puncta by fluorescence microscopy; type: cell-based; settings: 100 nM bafilomycin alone, GL-H4 cells
Procedure: FIGS. 1A and 1B are a series of fluorescence micrographs showing that autophagic flow blocked by Bafilomycin A-1 is restored by the peptides according to one embodiment of the present invention, wherein an H4 cell line (GL-H4) stably overexpressing GFP-LC3 protein was treated with various peptides according to one embodiment of the present invention at a concentration of 20 μM in combination with Bafilomycin, whose LC3-GFP spots were photographed after 12 hours. FIGS. 1C and 1D are graphs showing quantification of the fluorescence intensity of LC3-GFP spots 12 hours after the treatment of the GL-H4 cell line with the peptides according to one embodiment of the present invention in combination with bafilomycin at a concentration of 20 μM. […]
To investigate the effect of the peptides comprising the amino acid sequences designated as SEQ ID NOs: 1 to 15 on autophagic flow, the present inventors treated H4 cell lines expressing GFP-tagged LC3 (GL-H4) with MEM and then used the above peptides (20 μM) and the autophagy inhibitor Bafilomycin A-1, Baf A1, 100 nM) to inhibit autophagy. Later, the effect of the peptides according to one embodiment of the present invention was investigated by fluorescence microscopy analysis. […]

[4] = system: α-synuclein protein aggregates (EGFP-a-synuclein A53T); assay: Western blot of α-synuclein protein aggregates in transfected HEK293T cells treated with bafilomycin; type: cell-based; settings: 100 nM bafilomycin alone vs control
Procedure: FIG. 4A is the results of a western blot analysis of a-synuclein expression levels of protein samples obtained 18 h after treatment of HEK293T cells transfected to express a-synuclein protein with either 100 nM bafilomycin alone or in combination with 30 μM of some peptides according to one embodiment of the present invention, to investigate the degradation of a-synuclein protein aggregates by treatment with some peptides (ZC303, ZC304, ZC309, ZC311) according to one embodiment of the present invention.
as §1, with “2000. After transfection, the cell lines were incubated in a cell incubator at 37° C., 5% CO2 for 30 h and the culture medium was replaced with Minimum Essential Medium (MEM, Gibco, USA). After a 30 min pre-treatment with 100 nM bafilomycin, 30 μM of peptide was added and incubated for 18 h of post-treatment.” for “2000.”

[5] = system: mutant tau protein aggregates (EGFP-Tau P301L); assay: Western blot of mutant tau protein aggregates in transfected HEK293T cells treated with bafilomycin; type: cell-based; settings: 100 nM bafilomycin alone vs controls
[6] = system: amyotrophic lateral sclerosis model animal (G93A-SOD1); assay: Rotarod test in ALS model animals; type: in vivo; settings: G93A-SOD1 mice, 40 mg/kg SC five days per week from age 112 to 200 days, 15 rpm, 300 seconds
Procedure: (§2) To determine whether the peptide according to one embodiment of the present invention has therapeutic effects on amyotrophic lateral sclerosis (ALS) in vivo, the present inventors administered the peptide according to one embodiment of the present invention (ZC311) to an amyotrophic lateral sclerosis model animal (G93A-SOD1) at 40 mg/kg by subcutaneous (SC) injection repeatedly five days per week (Monday through Friday) from the age of 112 days to 200 days.
The animals were then subjected to a rotarod test twice a week at intervals of up to 3-4 days to evaluate their motor function. The rotarod test was performed using a rotarod treadmill (Cat. No. DJ-345, Dae Jong, Seoul, Korea) to evaluate impaired coordination, the main symptom of basal ganglia lesion disease, by measuring the time for the subject animals (n=11, 8, and 10) to fall off the rod during three repetitions of 300 seconds at a constant speed of 15 rpm. 300 seconds was set to be a perfect score, and the highest score was used.

[7] = Body weight change in ALS model animals; type: in vivo; settings: G93A-SOD1 mice, 40 mg/kg SC five days per week from age 112 to 200 days
Procedure: as §2
The present inventors measured changes in body weight over time during the behavioral analysis of Experimental example 8-1 above.

[8] = system: P-Tau S214, P-Tau T205, unphosphorylated tau, p62, LC3, β-amyloid (APP); assay: Western blot of aggregate-forming proteins in cerebral cortex and hippocampus of Alzheimer's model animals; type: in vivo; settings: 5XFAD mice, 20 mg/kg IP, 25 weeks
Text: Based on the results of Experimental example 7-2 above, the present inventors investigated the expression of pathogenic aggregate-forming proteins such as tau protein, p62, and LC3 in brain tissue other than β-amyloid by Western blot analysis.
Specifically, cortical and hippocampal tissues were obtained from experimental animals sacrificed after experiments, and the tissues were lysed and subjected to Western blot analysis in the same manner as Experimental example 3, using antibodies that specifically bind to phosphorylated tau S214 (P-Tau S214), phosphorylated tau T205 (P-Tau T205), unphosphorylated tau, p62, LC3, and β-amyloid (APP), respectively.

[9] = system: amyotrophic lateral sclerosis model animal (G93A-SOD1); assay: Survival rate of ALS model animals; type: in vivo; settings: G93A-SOD1 mice, 40 mg/kg SC five days per week from age 112 days; untreated model 162 days
Procedure: as §2
In contrast, ALS model mice treated with the peptide according to one embodiment of the present invention began to die at a similar time to the control group, but the time to death was delayed (50% survival 183 days).

β-amyloid aggregates = assay: Thioflavin S and Congo red staining of β-amyloid plaques in brain sections of Alzheimer's model animals; type: in vivo; settings: 5XFAD mice, cortex and hippocampus, 20 mg/kg IP, 25 weeks, vs model animals given PBS alone
Text: To determine whether the peptides according to one embodiment of the present invention could inhibit the accumulation of β-amyloid aggregates in the brain as a pathologic phenomenon of Alzheimer's disease, even under realistic in vivo conditions as shown by the results of Experiments 4 and 5 above, brain tissue sections obtained from experimental animals sacrificed after the peptide administration for 25 weeks were stained with thioflavin S and Congo red that have selective affinity for β-amyloid plaques.
Specifically, for thioflavin S staining, the brain of a dementia model mouse was harvested and freeze-dried in O.C.T compound (Sakura finetec, USA), and brain sections were obtained by coronal sectioning and mounted on glass slides coated with 0.1% poly-L-lysine. The obtained brain sections were washed in 70% ethanol for 1 min, then in 80% ethanol for 1 min again, and stained in 1% thiflavin S solution (MilliporeSigma, USA) for 15 min. […] Finally, the β-amyloid senile spots were observed through fluorescence microscopy.
Congo red staining to identify amyloid was performed as follows. […] The amyloid senile spots were observed under a fluorescence microscope, and the number of stained senile spots and amyloid per brain section was counted and quantified with a statistical program (Graph prism).

Compound | SOD1 protein aggregates [1] | mutant huntingtin protein aggregates [2] | number and size of LC3 spots [3] | α-synuclein protein aggregates [4] | mutant tau protein aggregates [5] | development of ataxia (rotarod) [6] | progressive body weight loss over time [7] | expression of aggregate-forming proteins in the cerebral cortex [8] | expression of aggregate-forming proteins in the hippocampus [8] | 50% survival [9] [days] | accumulation of β-amyloid aggregates (plaques, thioflavin S and Congo red) (β-amyloid aggregates)
CO/C1=C\C(C)=C\[C@@H](C)[C@@H](O)[C@@H](C)C/C(C)=C/C=C/[C@H](OC)[C@@H]([C@@H](C)[C@@H](O)[C@H](C)[C@@]2(O)C[C@@H](O)[C@H](C)[C@@H](C(C)C)O2)OC1=O [bafilomycin, Bafilomycin A-1] | increased | increased | significantly increased | increased | increased |  |  |  |  |  | 
ZC311 ([dH]G[dV][dS]GHGQ[dH]G[dV][dH]G; not fully specified (residues 6, 8)) |  |  |  |  |  | delayed | not altered | significantly lower | significantly lower | 183 | significantly inhibited
